Key:
androgen receptor = assay: androgenic activity rating (procedures described above); design: key: +: androgenic activity found; ++: high androgenic activity; +++: excellent androgenic activity; settings: rated according to scheme; test procedure not specified
Description: (§1) Androgenic activity can be measured in various ways. Thus, the potency of androgens can be determined in vitro using the cytoplasmic androgen receptor from human breast tumor cells (MCF-7 cell line); see Bergink, E. W. et al, Comparison of the receptor binding properties of nandrolone and testosterone under in vitro and in vivo conditions, J. Steroid Biochem. 22, 831-836 (1985). It is also possible to use Chinese hamster ovary (CHO) cells transfected with the human androgen receptor (incubation time 16 h, temperature 4° C.) and compared with the affinity of 5α-dihydrotestosterone [according to the procedure described by Bergink, E. W. et al, J. Steroid Biochem. 19, 1563-1570 (1983)]. The transactivative androgen activity of the compounds of the invention can be measured, e.g. in Chinese hamster ovary cells (CHO) transfected with the human androgen receptor (hAR), in combination with a mouse mammary tumor virus (MMTV), and luciferase […] gene (incubation time 16 h, temperature 37° C.) and compared with the activity of […] [according to the procedure described by Schoonen, W. G. E. J. et al, Analyt. Biochem. 261, 222-224 (1998)]. For the in vivo potency determination of androgens the classical Hershberger test can be used. In this test the androgenic (increase in prostate weight) and anabolic activities [increase of the musculus levator ani (MLA)] of a compound are tested in immature castrated rats after daily administration for 7 days; see Hershberger, L. G. et al, Myotrophic activity of 19-Nortestosteronie and other steroids determined by modified levator ani muscle method, Proceedings of the society for experimental biology and medicine 83, 175-180 (1953). Additionally, the effect of an androgenic compound on LH suppression can be tested in mature castrated rats according to Kumar, N. et al, The biological activity of 7alpha-methyl-19-nortestosterone is not amplified in male reproductive tract as is that of testosterone, Endocrinology 130, 3677-3683 (1992).
The compounds according to the invention were tested for androgenic activity (the procedures for which have been described above) and rated according to the following scheme: […]

[1] = biological target: T1, human androgen receptor (hAR) (Homo sapiens, UniProt P10275); assay: transactivative androgen activity in CHO cells transfected with hAR, MMTV and luciferase reporter gene; assay type: cell-based; settings: MMTV, luciferase, incubation 16 h, 37° C., compared with the activity of dihydrotestosterone
T1 construct: expressed in transfected cells; host or cells: Chinese hamster ovary (CHO) cells
T1 sequence (P10275 1-920): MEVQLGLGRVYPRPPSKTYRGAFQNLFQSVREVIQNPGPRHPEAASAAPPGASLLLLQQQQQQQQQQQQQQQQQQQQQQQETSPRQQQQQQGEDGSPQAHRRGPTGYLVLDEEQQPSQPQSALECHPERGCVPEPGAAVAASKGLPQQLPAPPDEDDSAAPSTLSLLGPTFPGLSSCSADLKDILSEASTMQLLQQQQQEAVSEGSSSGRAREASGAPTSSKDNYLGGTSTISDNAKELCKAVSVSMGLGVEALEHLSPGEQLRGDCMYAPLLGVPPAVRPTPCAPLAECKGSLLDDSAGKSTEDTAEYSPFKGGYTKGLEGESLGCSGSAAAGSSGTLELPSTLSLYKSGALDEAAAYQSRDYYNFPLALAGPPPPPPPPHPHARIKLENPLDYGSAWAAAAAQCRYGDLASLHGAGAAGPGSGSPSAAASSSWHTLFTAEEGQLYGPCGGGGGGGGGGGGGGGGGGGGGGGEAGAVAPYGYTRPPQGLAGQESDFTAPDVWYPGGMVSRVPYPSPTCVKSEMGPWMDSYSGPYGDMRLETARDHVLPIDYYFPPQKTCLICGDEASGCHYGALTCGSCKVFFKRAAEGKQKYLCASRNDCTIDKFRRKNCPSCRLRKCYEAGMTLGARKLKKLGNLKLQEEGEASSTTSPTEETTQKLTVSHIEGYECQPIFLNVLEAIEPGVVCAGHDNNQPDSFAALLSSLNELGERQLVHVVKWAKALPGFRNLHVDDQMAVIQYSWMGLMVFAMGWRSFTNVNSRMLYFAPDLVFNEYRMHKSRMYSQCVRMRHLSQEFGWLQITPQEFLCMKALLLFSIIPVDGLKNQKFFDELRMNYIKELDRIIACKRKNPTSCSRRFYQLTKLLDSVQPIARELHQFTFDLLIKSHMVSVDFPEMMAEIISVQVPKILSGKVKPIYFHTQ
Description: as §1, with “Biochem. 261, 222-224 (1998)]. For the in vivo potency determination of androgens the classical Hershberger test can be used.” left out, “Additionally, the effect of an androgenic compound on LH suppression can be tested in mature castrated rats according to Kumar, N. et al, The biological activity of 7alpha-methyl-19-nortestosterone is not amplified in male reproductive tract as is that of testosterone, Endocrinology 130, 3677-3683 (1992).” left out
The transactivative androgen activity was determined in a comparison of the following compounds: the compound of Example 1 according to the invention, i.e. (7α,14β,16α,17α)-16,17-dihydro-17-(hydroxymethyl)-7-methyl-3′H-cyclopropa[16,17]estra-4,16-dien-3-one, and compounds denoted C1 and C2, not according to the invention, which respectively are (7α,14β,16β,17α)-17-(hydroxymethyl)-7,16-dimethylestr-4-en-3-one and (7α,14β,17α)-17-(hydroxymethyl)-7,17-dimethylestr-4-en-3-one as disclosed in WO 00/53619.

SMILES	Result (androgenic activity) (androgen receptor)	Transactivative androgen activity [1]
C[C@@H]1CC2=CC(=O)CC[C@@H]2[C@H]2CC[C@@]3(C)[C@H](C[C@@H]4C[C@@]43CO)[C@@H]21 [Example 1, (7α,14β,16α,17α)-16,17-Dihydro-17-(hydroxymethyl)-7-methyl-3′H-cyclopropa[16,17]estra-4,16-dien-3-one]	+++	263
C[C@@H]1CC2=CC(=O)CC[C@@H]2[C@H]2CC[C@@]3(C)[C@H](C[C@@H]4C[C@@]43[C@H](C)O)[C@@H]21 [Example 2, (7α,14β,16α,17α,20S)-16,17-Dihydro-20-hydroxy-7-methyl-3′H-cyclopropa[16,17]-19-norpregna-4,16-dien-3-one]	++	–
CC[C@H](O)[C@]12C[C@H]1C[C@@H]1[C@H]3[C@H](CC[C@@]12C)[C@H]1CCC(=O)C=C1C[C@H]3C [Example 3a, [7α,14β,16α,17α(20S)]-16,17-Dihydro-20-(1-hydroxypropyl)-7-methyl-3′H-cyclopropa [16,17]estra-4,16-dien-3-one]	++	–
C#C[C@H](O)[C@]12C[C@H]1C[C@@H]1[C@H]3[C@H](CC[C@@]12C)[C@H]1CCC(=O)C=C1C[C@H]3C [Example 3b, [7α,14β,16α,17α(20S)]-16,17-Dihydro-20-(1-hydroxy-2-propynyl)-7-methyl-3 ′H-cyclopropa[16,17]estra-4,16-dien-3-one]	++	–
C[C@@H]1CC2=C[C@@H](O)CC[C@@H]2[C@H]2CC[C@@]3(C)[C@H](C[C@@H]4C[C@@]43CO)[C@@H]21 [Example 4, (3β,7α,14β,16α,17α)-16,17-Dihydro-17-(hydroxymethyl)-7-methyl-3′H-cyclopropa[16,17]estra-4,16-dien-3-ol]	(prodrug)	–
C[C@@H]1CC2=C/C(=N/O)CC[C@@H]2[C@H]2CC[C@@]3(C)[C@H](C[C@@H]4C[C@@]43CO)[C@@H]21 [Example 5a, (3E,7α,14β,16α,17α)-16,17-Dihydro-3-(hydroxyimino)-7-methyl-3′H-cyclopropa[16,17]estra-4,16-diene-17-methanol]	(prodrug)	–
C[C@@H]1CC2=C/C(=N\O)CC[C@@H]2[C@H]2CC[C@@]3(C)[C@H](C[C@@H]4C[C@@]43CO)[C@@H]21 [Example 5b, (3Z,7α,14β,16α,17α)-16,17-dihydro-3-(hydroxyimino)-7-methyl-3′H-cyclopropa[16,17]estra-4,16-diene-17-methanol]	(prodrug)	–
C[C@]12CC[C@H]3[C@@H](CCC4=CC(=O)CC[C@@H]43)[C@H]1C[C@@H]1C[C@@]12CO [Example 6, (14β,16α,17α)-16,17-Dihydro-17-(hydroxymethyl)-3′H-cyclopropa[16,17]estra-4,16-dien-3-one]	++	–
C[C@]12CC[C@H]3[C@@H](CC[C@H]4CC(=O)CC[C@@H]43)[C@H]1C[C@@H]1C[C@@]12CO [Example 7, (5α,14β,16α,17α)-16,17-Dihydro-17-(hydroxymethyl)-3′H-cyclopropa[16,17]estr-16-en-3-one]	++	–
C[C@@H]1CC2=CC(=O)CC[C@@H]2[C@H]2CC[C@@]3(C)[C@H](C[C@H](C)[C@H]3CO)[C@@H]21 [Example C1, (7α,14β,16β,17α)-17-(hydroxymethyl)-7,16-dimethylestr-4-en-3-one]	–	72
CC1CC2=CC(=O)CCC2C2CCC3(C)C(CCC3(C)CO)C12 (stereo not drawn) [Example C2, (7α,14β,17α)-17-(hydroxymethyl)-7,17-dimethylestr-4-en-3-one]	–	22
